One assay concerns EGFR protein. As to the kind of experiment: Western blot of protein expression. It counts as cell-based, human. Conditions: 48 hours, concentration-dependent. The procedure:
(§1) Human head and neck cancer cell lines, FaDu cells and SCC-25 cells, were seeded in 60 mm dishes at a density of 5 × 10^5 cells and cultured for 24 hours. Thereafter, the FaDu cells were treated with compound AON-MG23 of the present invention at concentrations of 0 µM, 0.25 µM, 0.5 µM, 1 µM, 2 µM, and 4 µM, and the SCC-25 cells were treated with the compound at concentrations of 0 µM, 0.25 µM, 0.5 µM, 1 µM, and 2 µM. The cells were cultured for 48 hours. After culture, the cells were recovered, and the recovered cells were lysed to perform Western blot. As antibodies used for Western blot, an anti-ANO1 antibody (Abcam, ab53212), an anti-EGFR antibody (Cell Signaling, #4267S), and an anti-glyceraldehyde 3-phosphate dehydrogenase (GAPDH) antibody (Santacruz, #SC-5286) were used. Protein concentration was quantified using the […] (Protein Quantitation Assay, BSA assay) (Pierce, Cat.23225). After lysing the cells, the proteins obtained therefrom were separated by molecular weight using 10% sodium dodecyl sulfate-polyacrylamide gel electrophoresis (SDS-PAGE) with equal amounts (20 µg). After transferring the proteins to a polyvinylidene fluoride (PVDF) membrane (Bio-Rad), the proteins were treated with a 5% blocking buffer (5% skim milk in Tris-buffered saline (TBS) buffer containing 0.1% Tween 20 (TBS-T)) at room temperature for one hour. Subsequently, the membrane was treated with a primary antibody, which was allowed to react at 4 °C for 16 hours. After the reaction was complete, the membrane was washed three times with TBS-T. Subsequently, the membrane was treated with a secondary antibody labeled with horseradish peroxidase at room temperature for one hour and then visualized using an enhanced chemiluminescence (ECL) kit (Bio-Rad). The amount of each protein was quantified and analyzed using Image J software.

The subject of another assay is ANO1 protein. Description: Western blot of protein expression. It counts as cell-based, human. The note with it: 48 hours, concentration-dependent. Here is the method: as §1
Assay [1] concerns FaDu cells. As to the kind of experiment: clonogenic assay. The note with it: 0.125-1 µM, nine days, FIG. 2. The format is cell-based, human. Here is the method:
To confirm the proliferation inhibitory effect of compound AON-MG23 of the present invention on head and neck cancer cells, a clonogenic assay was conducted. Specifically, head and neck cancer cell line FaDu cells were plated in a 6-well cell culture plate at a density of 250 cells per well. On the next day, the cell culture medium was removed and replaced with a cell culture medium containing compound AON-MG23 of the present invention at concentrations of 0 µM, 0.125 µM, 0.25 µM, 0.5 µM, and 1 µM. After culturing the cells for nine days, the resulting cell colonies were stained and photographed, and then the cell colonies were counted and analyzed using Image J software.

Assay [2] concerns SCC-25 cells. As to the kind of experiment: Matrigel Transwell invasion assay. The format is cell-based, human. The note with it: 0.25-2 µM, 24 hours, FIG. 4B. The procedure:
(§2) Human head and neck cancer cell lines, FaDu cells and SCC-25 cells, were seeded at a density of 6 x 10^4 cells/well on top of filters coated with Matrigel (Transwell invasion chamber, Corning). Thereafter, the FaDu cells were treated with compound AON-MG23 of the present invention at concentrations of 0 µM, 0.25 µM, 0.5 µM, 1 µM, and 2 µM, and the SCC-25 cells were also treated with the compound at concentrations of 0 µM, 0.25 µM, 0.5 µM, 1 µM, and 2 µM. Cells were cultured in a CO2 in an incubator at 37 °C for 24 hours. After culture, cell fixation and staining were performed using the Diff-Quick stain Kit (Sysmex, Kobe, Japan). The stained cells were imaged under a microscope, and the cells were counted and statistically analyzed using Image J software.

Assay [3] deals with FaDu cells. As to the kind of experiment: Matrigel Transwell invasion assay. The format is cell-based, human. The note with it: 0.25-2 µM, 24 hours, FIG. 4A. The procedure: as §2
For assay [4], the system named is SCC-25 cells. As to the kind of experiment: CCK assay, cell proliferation. It counts as cell-based, human. The note with it: 0.5-4 µM, 48 hours, absorbance at 450 nm, FIG. 1. Here is the method:
(§3) FaDu cells and squamous cell carcinoma-25 (SCC-25) cells, which are human head and neck cancer cell lines, were seeded in 96-well plates at a density of 1 x 10^5 cells/well and cultured for 24 hours. Thereafter, the cells were treated with compound AON-MG23 of the present invention at various concentrations and cultured for 48 hours. The cells were treated with the compound of the present invention at various concentrations of 0 µM, 0.5 µM, 1 µM, 2 µM, and 4 µM. 10 µL of cell counting kit (CCK) reagent was added and allowed to react for one hour, and then the absorbance was measured at 450 nm.

Assay [5] relates to FaDu cells. As to the kind of experiment: CCK assay, cell proliferation. It counts as cell-based, human. The note with it: 0.5-4 µM, 48 hours, absorbance at 450 nm, FIG. 1. Here is the method: as §3
In assay [6] the test system is FaDu cells. Description: drug combination effect, SRB assay with Bliss scoring. The note with it: five days co-treatment, score > 0 = synergistic. The format is cell-based, human. Here is the method: The combination effect of compound AON-MG23 of the present invention was confirmed using Bliss scoring based on the results of the sulforhodamine B assay (SRB assay). Specifically, human head and neck cancer cell line FaDu cells were plated in a 96-well cell culture plate at a density of 1 x 10^3 cells/well. On the next day, in order to confirm the combination effect with compound AON-MG23 of the present invention, a drug, paclitaxel or osimertinib, was diluted to concentrations for testing, and cells were treated with the diluted drug and then cultured for five days. […] The absorbance of the dissolved solution was measured at 540 nm using a plate reader. The measured absorbance values were compared to the control group and converted into percentages, and the combination effect was analyzed using the percentage data at an analysis website (https://synergyfinder.fimm.fi/). The presence of a combination effect was evaluated according to the following criteria based on relevant literature (Bliss, C. I. (1939). The toxicity of poisons applied jointly. Annals of Applied Biology, 26(3), 585-615.): a score > 0 indicates a synergistic effect; a score = 0 indicates an independent effect; and a score < 0 indicates an antagonistic effect.
(In general: The SRB assay estimates cell density from bound dye.)

Assay [7] has as its system SCC-25 cells. Description: cell migration assay (SPLScar Block plates). The format is cell-based. The note with it: Homo sapiens, 17 hours, FIG. 3B, read-out: inhibition of migration compared to the control group. The procedure: (§4) Human head and neck cancer cell lines, FaDu cells and SCC-25 cells, were seeded in SPLScar Block plates (SPL) at a density of 7.2 x 10^4/well and cultured for 24 hours. After 24 hours, the blocks were removed, and at the same time, compound AON-MG23 of the present invention was applied at various concentrations. Thereafter, cells were cultured in a CO2 incubator at 37 °C for 17 hours. Specifically, the FaDu cells were treated with compound AON-MG23 of the present invention at concentrations of 0 µM, 0.25 µM, 0.5 µM, 1 µM, and 2 µM, and the SCC-25 cells were also treated at concentrations of 0 µM, 0.25 µM, 0.5 µM, 1 µM, and 2 µM. Photographs were taken before and after each culture, and the migration distance of the cells was measured using Image J software. Based on the results, the inhibition of the cell migration was analyzed.

In assay [8] the test system is FaDu cells. As to the kind of experiment: cell migration assay (SPLScar Block plates). It counts as cell-based. Conditions: Homo sapiens, 17 hours, FIG. 3A, read-out: inhibition of migration compared to the control group. Here is the method: as §4
Setting [9] is: SCC-25 cells, 0.25-2 µM, FIG. 5B.

On to `COc1cc(N2CCC(N(C)C)CC2)ccc1Nc1ncc(Cl)c(Nc2ccccc2N(C2CC2)S(C)(=O)=O)n1` [AON-MG23, N-(2-((5-chloro-2-((4-(4-(dimethylamino)piperidin-1-yl)-2-methoxyphenyl)amino)pyrimidin-4-yl)amino)phenyl)-N-cyclopropylmethanesulfonamide], for which the EGFR protein level result is “significantly inhibited” with EGFR protein (FaDu cells, 0.25-4 µM, FIG. 5A) and “significantly inhibited” in the assay on EGFR protein (setting [9]). For the same molecule, the ANO1 protein level entry is listed as “significantly inhibited” with ANO1 protein (FaDu cells, 0.25-4 µM, FIG. 5A) and “significantly inhibited” in the assay on ANO1 protein (setting [9]). In the assay on FaDu cells [1], the clonogenesis result is given as “clonogenesis of the FaDu cells was inhibited”. Moreover, the “degree of penetration into Matrigel” value in the assay on SCC-25 cells [2] and in the assay with FaDu cells [3] was “reduced degree of penetration into Matrigel compared to the untreated control group” in each case. For the same molecule, the “proliferation of head and neck cancer cells” value in the assay with SCC-25 cells [4] is “inhibited the proliferation of head and neck cancer cells”; in the assay with FaDu cells [5], “inhibited the proliferation of head and neck cancer cells”. Besides, the Bliss synergy score with FaDu cells [6] (combination with osimertinib, FIG. 6B) is 19.25; with FaDu cells [6] (combination with paclitaxel, FIG. 6A), 6.72 points. The inhibition at 1 µM in the assay on SCC-25 cells [7] was about 90%. In addition, in the assay on FaDu cells [8], the inhibition at 2 µM was at least 80%.

The values are drawn from EP4813377A1, “PHARMACEUTICAL COMPOSITION FOR PREVENTING OR TREATING HEAD AND NECK CANCER” (Astrion Inc., priority 2023, dated 2025).
